Consider 1 molecule from publication PMC12613816, “Discovery of Novel Isoxazole-Based Small-Molecule Toll-Like Receptor 8 Antagonists” (Journal of Medicinal Chemistry, 2025).

Bounds are passed on as bounds.

The target of assay [1] is T1, TLR8 (Homo sapiens, UniProt Q9NR97).
T1 sequence (Q9NR97 27-1041): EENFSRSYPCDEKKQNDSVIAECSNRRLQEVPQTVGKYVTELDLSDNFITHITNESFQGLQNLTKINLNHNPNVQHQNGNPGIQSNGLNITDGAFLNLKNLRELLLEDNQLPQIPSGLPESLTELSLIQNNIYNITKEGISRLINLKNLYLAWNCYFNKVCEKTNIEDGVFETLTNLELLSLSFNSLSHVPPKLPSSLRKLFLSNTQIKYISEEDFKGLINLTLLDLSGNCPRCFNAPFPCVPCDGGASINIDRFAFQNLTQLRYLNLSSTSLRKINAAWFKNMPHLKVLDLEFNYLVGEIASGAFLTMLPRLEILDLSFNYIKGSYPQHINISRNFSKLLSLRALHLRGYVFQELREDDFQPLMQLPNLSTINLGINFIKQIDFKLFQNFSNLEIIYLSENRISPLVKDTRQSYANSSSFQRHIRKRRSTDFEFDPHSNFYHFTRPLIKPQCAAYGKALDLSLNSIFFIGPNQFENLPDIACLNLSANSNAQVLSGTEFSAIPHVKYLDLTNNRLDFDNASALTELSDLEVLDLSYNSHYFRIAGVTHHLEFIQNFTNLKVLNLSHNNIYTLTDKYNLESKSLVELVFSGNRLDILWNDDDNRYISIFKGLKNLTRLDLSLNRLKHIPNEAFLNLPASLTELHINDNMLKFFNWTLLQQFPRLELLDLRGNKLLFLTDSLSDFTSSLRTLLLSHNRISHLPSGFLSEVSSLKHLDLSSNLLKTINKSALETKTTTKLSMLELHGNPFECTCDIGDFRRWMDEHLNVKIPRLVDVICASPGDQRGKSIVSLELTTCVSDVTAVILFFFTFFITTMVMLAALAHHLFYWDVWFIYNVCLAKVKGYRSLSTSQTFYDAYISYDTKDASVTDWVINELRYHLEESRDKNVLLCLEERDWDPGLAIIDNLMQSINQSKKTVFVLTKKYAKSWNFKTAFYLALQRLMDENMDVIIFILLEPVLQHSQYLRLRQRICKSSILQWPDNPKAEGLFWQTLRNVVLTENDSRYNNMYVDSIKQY
Description: Inhibition of TL8-506-stimulated NF-κB activity (SEAP reporter, QuantiBlue) in hTLR8-HEK293 reporter cells. The format is cell-based. Also on record: host or cells: HEK293 (HEK-Blue hTLR8). As to conditions: TL8-506 (0.6 μM) 24 h.

Assay [2] deals with T1, TLR8. Description: Inhibition of TL8-506-stimulated TNF release (ELISA) in PBMCs. As to conditions: read-out: IC50 [μM] (95% CI) TNF release PBMCs, 1 h preincubation, TL8-506 (0.6 μM) 4 h.
Description: For the calculation of concentration–response curves, nonlinear regression with variable slope (four parameters) was used. Mean ± SEM (n = 3).
PMBCs were washed three times with PBS containing ETDA and afterward seeded in 24-well plates (5 × 10^6 cells/well).
A further assay has as its target T2, TLR8 F495L mutation (Homo sapiens, UniProt Q9NR97, F495L).
T2 construct: host or cells: HEK-Blue Null1 cells, transient transfection with PEI Max
T2 sequence (Q9NR97 1-1059 isoform Q9NR97-2 F513L): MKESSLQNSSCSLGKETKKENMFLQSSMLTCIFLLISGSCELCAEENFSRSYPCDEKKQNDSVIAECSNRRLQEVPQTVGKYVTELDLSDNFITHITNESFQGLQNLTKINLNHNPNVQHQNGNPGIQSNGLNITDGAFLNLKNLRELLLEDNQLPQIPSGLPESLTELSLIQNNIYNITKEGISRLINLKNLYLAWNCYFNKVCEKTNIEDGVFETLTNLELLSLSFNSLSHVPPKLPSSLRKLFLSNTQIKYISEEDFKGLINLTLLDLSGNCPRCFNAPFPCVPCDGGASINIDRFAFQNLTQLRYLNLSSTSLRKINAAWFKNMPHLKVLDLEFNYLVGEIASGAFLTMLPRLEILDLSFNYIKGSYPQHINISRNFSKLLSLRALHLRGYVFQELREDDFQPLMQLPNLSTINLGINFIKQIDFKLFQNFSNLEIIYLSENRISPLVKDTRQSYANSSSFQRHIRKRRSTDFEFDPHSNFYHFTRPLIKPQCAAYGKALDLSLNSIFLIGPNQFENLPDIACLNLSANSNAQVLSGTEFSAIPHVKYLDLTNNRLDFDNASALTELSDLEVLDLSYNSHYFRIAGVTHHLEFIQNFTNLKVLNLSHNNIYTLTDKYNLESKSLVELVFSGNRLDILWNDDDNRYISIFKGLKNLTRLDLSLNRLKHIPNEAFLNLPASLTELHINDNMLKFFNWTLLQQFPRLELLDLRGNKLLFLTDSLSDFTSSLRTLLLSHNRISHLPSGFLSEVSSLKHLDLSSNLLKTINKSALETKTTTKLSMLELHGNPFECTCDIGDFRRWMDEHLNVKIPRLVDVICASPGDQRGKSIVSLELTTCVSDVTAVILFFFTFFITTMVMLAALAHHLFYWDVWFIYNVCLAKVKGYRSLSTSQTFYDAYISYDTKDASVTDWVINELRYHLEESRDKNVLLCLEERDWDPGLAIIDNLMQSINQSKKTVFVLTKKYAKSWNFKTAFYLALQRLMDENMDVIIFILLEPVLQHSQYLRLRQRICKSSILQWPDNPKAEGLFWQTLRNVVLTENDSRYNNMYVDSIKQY
Description: NF-κB SEAP reporter in HEK293 reporter control cells transfected with TLR8 F495L mutant plasmid. The assay is classed as cell-based. As to conditions: compound 10 2 μM, Enpatoran 1 μM; TL8-506 3 μM or CL075 4 μM, 24 h.

In another assay the target is T3, hTLR7 (Homo sapiens, UniProt Q9NYK1).
T3 construct: host or cells: HEK293 (HEK-Blue hTLR7)
T3 sequence (Q9NYK1 27-1049): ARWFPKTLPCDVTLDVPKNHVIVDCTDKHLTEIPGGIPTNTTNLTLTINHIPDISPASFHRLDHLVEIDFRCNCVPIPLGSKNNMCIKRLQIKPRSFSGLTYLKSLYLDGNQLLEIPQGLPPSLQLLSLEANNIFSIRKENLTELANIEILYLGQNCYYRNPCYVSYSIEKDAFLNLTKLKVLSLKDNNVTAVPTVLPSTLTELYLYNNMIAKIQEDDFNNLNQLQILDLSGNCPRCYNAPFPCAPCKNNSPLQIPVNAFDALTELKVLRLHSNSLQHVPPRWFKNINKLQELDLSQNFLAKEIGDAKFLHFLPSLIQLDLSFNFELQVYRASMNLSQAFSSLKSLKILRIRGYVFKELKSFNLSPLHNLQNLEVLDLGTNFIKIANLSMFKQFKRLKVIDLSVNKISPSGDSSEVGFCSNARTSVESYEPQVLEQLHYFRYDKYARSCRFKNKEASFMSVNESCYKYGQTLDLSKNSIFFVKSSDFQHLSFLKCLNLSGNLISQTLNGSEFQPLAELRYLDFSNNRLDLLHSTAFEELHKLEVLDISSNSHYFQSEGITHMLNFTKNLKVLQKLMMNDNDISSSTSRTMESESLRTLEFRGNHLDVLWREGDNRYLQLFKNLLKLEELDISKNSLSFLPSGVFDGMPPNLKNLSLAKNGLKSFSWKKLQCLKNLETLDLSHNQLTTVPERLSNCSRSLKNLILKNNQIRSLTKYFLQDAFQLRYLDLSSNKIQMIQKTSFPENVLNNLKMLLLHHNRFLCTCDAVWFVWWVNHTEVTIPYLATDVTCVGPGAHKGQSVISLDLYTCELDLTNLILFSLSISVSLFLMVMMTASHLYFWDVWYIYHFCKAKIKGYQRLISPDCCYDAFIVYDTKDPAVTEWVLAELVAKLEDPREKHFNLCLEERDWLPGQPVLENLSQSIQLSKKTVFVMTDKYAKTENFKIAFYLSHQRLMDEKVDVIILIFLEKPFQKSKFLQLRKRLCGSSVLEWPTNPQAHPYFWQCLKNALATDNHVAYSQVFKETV
Description: Inhibition of CL307-stimulated NF-κB activity (SEAP reporter) in hTLR7-HEK293 reporter cells. The format is cell-based. As to conditions: read-out: IC50 [μM] (95% CI) hTLR7-HEK293; inhibition of NF-κB activity; 1 h preincubation, CL307 (1.7 µM) 24 h. From the text: For stimulation experiments, cells were washed with phosphate-buffered saline (PBS, Sigma-Aldrich) and media was replaced with OptiMEM (Thermo Fisher Scientific, Darmstadt, Germany). […] The following TLR ligands were used: Pam2CSK4, Pam3CSK4, poly(I:C) (HMW), LPS from Escherichia coli O111:B4 (LPS-EB Ultrapure), flagellin from Bacillus subtilis (flagellin-BS Ultrapure), CL307, CL075, R848, TL8-506, ODN2006 (all from InvivoGen, Toulouse, France), and Enpatoran (BIOZOL Diagnostika, Germany).

As usually defined, the inhibition is the drop in the measured response relative to a control, in per cent. What is called IC50 is the point on the concentration scale where inhibition reaches its midpoint. For the molecule `N#Cc1ccc(N2C[C@H](N)C[C@H](C(F)(F)F)C2)c2cccnc12` [Enpatoran, reference compound], the inhibition at 10 µM on TLR8 [1] (read-out: % inhibition at 10 µM ± SEM (NF-κB activity), 10 µM compound, hTLR8-HEK293) amounted to 100%. Further, the IC50 was 0.285 µM on TLR8 [1] (read-out: IC50 [μM] (95% CI) hTLR8-HEK293, inhibition of NF-κB activity, 1 h preincubation); 0.074 µM on TLR8 [2]; at most 0.05 µM on hTLR7. Further, the “TLR8 activation in F495L mutation, triggered by CL075 and TL8-506” value at TLR8 F495L mutation was “reduced”.
